Experimental data as given in ChEMBL document CHEMBL4507326, “Data for DCP probe TP-030-2” (2021).

How the values were obtained:
[1] = target: 5-hydroxytryptamine receptor 2A (Homo sapiens, UniProt P28223); test: GPCRScan assay: inhibition of 5-HT2A; set-up: radioligand conc. used [nm] 1.2 – 2.4, parental cells HEKT
[2] = target: hERG (KCNH2) (Homo sapiens, UniProt Q12809); test: Inhibition of Potassium Channel hERG at 10 µM in the Eurofins-Panlabs radioligand binding assay (Eurofins_assay_265900); set-up: ligand concentration 1.5 nM, non-specific ligand with concentration Astemizole, incubation time 60 min, incubation temperature 25 °C; conditions: HEK-293 cells expressing human recombinant hERG, probe [3H] Astemizole, compound concentration 10 uM
[3] = target: D(1B) dopamine receptor (Homo sapiens) (UniProt P21918); test: Dopamine D5 Eurofins-Panlabs radioligand binding assay; conditions: Compound concentration 10.0 uM
[4] = target: Activin receptor type-2A (Homo sapiens, UniProt P27037); test: ACtR2(AC2ALGE1) Takeda global kinase panel
[5] = target: RAC-gamma serine/threonine-protein kinase (Homo sapiens, UniProt Q9Y243); test: Akt3 [PKBgamma(AKT3LGY1)] Takeda global kinase panel
[6] = target: Ankyrin repeat and protein kinase domain-containing protein 1 (Homo sapiens, UniProt Q8NFD2); test: SgK288(ANK1LGRL) Takeda global kinase panel
[7] = target: Aurora kinase B (Homo sapiens, UniProt Q96GD4); test: AurB [Aur1(AURBPGE1)] Takeda global kinase panel
[8] = target: BMP-2-inducible protein kinase (Homo sapiens, UniProt Q9NSY1); test: BIKE(BM2KLGY1) Takeda global kinase panel
[9] = target: Bone morphogenetic protein receptor type-1B (Homo sapiens, UniProt O00238); test: BMPR1B(BM1BLGF1) Takeda global kinase panel
[10] = target: Cyclin-dependent kinase 3 (Homo sapiens, UniProt Q00526); test: CDK3(CDK3CGS1) Takeda global kinase panel
[11] = target: Cyclin-dependent kinase 5 (Homo sapiens, UniProt Q00535); test: CDK5(CDK5CGS1) Takeda global kinase panel
[12] = target: Casein kinase I isoform delta (Homo sapiens, UniProt P48730); test: CK1delta(CS1DLGI1) Takeda global kinase panel
[13] = target: Casein kinase I isoform epsilon (Homo sapiens, UniProt P49674); test: CK1epsilon(CS1ELGI5) Takeda global kinase panel
[14] = target: Ephrin type-A receptor 5 (Homo sapiens, UniProt P54756); test: EphA5(EPA5MGF1) Takeda global kinase panel
[15] = target: Insulin receptor-related protein (Homo sapiens, UniProt P14616); test: IRR(INSSLGF1) Takeda global kinase panel
[16] = target: Vascular endothelial growth factor receptor 2 (Homo sapiens, UniProt P35968); test: KDR(KDR1CGY1) Takeda global kinase panel
[17] = target: Mitogen-activated protein kinase kinase kinase 5 (Homo sapiens, UniProt Q99683); test: ASK [MAP3K5(M3K5LGA1)] Takeda global kinase panel
[18] = target: Microtubule-associated serine/threonine-protein kinase 1 (Homo sapiens, UniProt Q9Y2H9); test: MAST1(MAS1LGE5) Takeda global kinase panel
[19] = target: Serine/threonine-protein kinase greatwall (Homo sapiens, UniProt Q96GX5); test: MASTL(MASLLGE1) Takeda global kinase panel
[20] = target: Tyrosine-protein kinase Mer (Homo sapiens, UniProt Q12866); test: Mer(MERTLGF1) Takeda global kinase panel
[21] = target: Myosin-IIIb (Homo sapiens, UniProt Q8WXR4); test: MYO3B(MY3BLGA1) Takeda global kinase panel
[22] = target: Platelet-derived growth factor receptor beta (Homo sapiens, UniProt P09619); test: PDGFRbeta(PDGBIHC1) Takeda global kinase panel
[23] = target: Serine/threonine-protein kinase PLK3 (Homo sapiens, UniProt Q9H4B4); test: PLK3(PLK3PHY1) Takeda global kinase panel
[24] = target: cAMP-dependent protein kinase catalytic subunit gamma (Homo sapiens, UniProt P22612); test: PKAgamma(PRCGLGY1) Takeda global kinase panel
[25] = target: Serine/threonine-protein kinase D3 (Homo sapiens, UniProt O94806); test: PKD3(PRD3LGG5) Takeda global kinase panel
[26] = target: Receptor-interacting serine/threonine-protein kinase 2 (Homo sapiens, UniProt O43353); test: RIPK2(RIP2LGI1) Takeda global kinase panel
[27] = target: Ribosomal protein S6 kinase alpha-2 (Homo sapiens, UniProt Q15349); test: RSK3(R6A1CGE1) Takeda global kinase panel
[28] = target: Ribosomal protein S6 kinase alpha-5 (Homo sapiens, UniProt O75582); test: MSK1(R6A5LGY1) Takeda global kinase panel
[29] = target: Ribosomal protein S6 kinase alpha-6 (Homo sapiens, UniProt Q9UK32); test: RSK4(R6A6LGF1) Takeda global kinase panel
[30] = target: Serine/threonine-protein kinase SIK3 (Homo sapiens, UniProt Q9Y2K2); test: QSK(SIK3LGP1) Takeda global kinase panel
[31] = target: STE20-like serine/threonine-protein kinase (Homo sapiens, UniProt Q9H2G2); test: SLK(SLK1LGRJ) Takeda global kinase panel
[32] = target: Serine/threonine-protein kinase 24 (Homo sapiens, UniProt Q9Y6E0); test: MST3(ST24LGC1) Takeda global kinase panel
[33] = target: Serine/threonine-protein kinase TAO3 (Homo sapiens, UniProt Q9H2K8); test: TAO3(TAO3LGY1) Takeda global kinase panel
[34] = target: Testis-specific serine/threonine-protein kinase 1 (Homo sapiens, UniProt Q9BXA7); test: TSSK1(TS1BLGP1) Takeda global kinase panel
[35] = target: Tyrosine-protein kinase TXK (Homo sapiens, UniProt P42681); test: TXK(TXK1CGD5) Takeda global kinase panel
[36] = target: Uncharacterized serine/threonine-protein kinase SBK3 (Homo sapiens, UniProt P0C264); test: SgK110(SG10LGF1) Takeda global kinase panel
[37] = target: 5-hydroxytryptamine receptor 5A (Homo sapiens) (UniProt P47898); conditions: Compound concentration 10.0 uM
[38] = target: Sodium-dependent dopamine transporter (Homo sapiens) (UniProt Q01959); conditions: Compound concentration 10.0 uM
[39] = target: Histamine H1 receptor (Homo sapiens) (UniProt P35367); conditions: Compound concentration 10.0 uM
[40] = target: D(2) dopamine receptor (Homo sapiens) (UniProt P14416); conditions: Compound concentration 10.0 uM
[41] = target: Delta-type opioid receptor (Homo sapiens) (UniProt P41143); conditions: Compound concentration 10.0 uM
[42] = target: Kappa-type opioid receptor (Homo sapiens) (UniProt P41145); conditions: Compound concentration 10.0 uM
[43] = target: Sodium-dependent serotonin transporter (Homo sapiens) (UniProt P31645); conditions: Compound concentration 10.0 uM
[44] = target: Glucocorticoid receptor (Homo sapiens) (UniProt P04150); conditions: Compound concentration 10.0 uM
[45] = target: B1 bradykinin receptor (Homo sapiens) (UniProt P46663); conditions: Compound concentration 10.0 uM
[46] = species: Oryctolagus cuniculus; conditions: Compound concentration 10.0 uM

5-hydroxytryptamine receptor 2A, sequence (P28223 whole entry): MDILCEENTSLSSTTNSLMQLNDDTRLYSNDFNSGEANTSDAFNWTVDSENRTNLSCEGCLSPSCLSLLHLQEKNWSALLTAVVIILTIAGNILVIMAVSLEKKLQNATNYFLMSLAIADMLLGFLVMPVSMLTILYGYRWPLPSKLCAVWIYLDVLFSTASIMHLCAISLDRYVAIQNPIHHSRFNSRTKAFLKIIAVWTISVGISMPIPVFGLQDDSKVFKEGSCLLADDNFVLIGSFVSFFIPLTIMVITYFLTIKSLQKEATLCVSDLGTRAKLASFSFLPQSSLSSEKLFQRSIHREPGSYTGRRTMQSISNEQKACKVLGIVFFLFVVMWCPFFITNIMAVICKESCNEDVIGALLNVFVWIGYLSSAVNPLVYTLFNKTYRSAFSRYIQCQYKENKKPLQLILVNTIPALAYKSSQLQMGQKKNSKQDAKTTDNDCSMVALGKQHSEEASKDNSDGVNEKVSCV
Cyclin-dependent kinase 3, sequence (Q00526 whole entry): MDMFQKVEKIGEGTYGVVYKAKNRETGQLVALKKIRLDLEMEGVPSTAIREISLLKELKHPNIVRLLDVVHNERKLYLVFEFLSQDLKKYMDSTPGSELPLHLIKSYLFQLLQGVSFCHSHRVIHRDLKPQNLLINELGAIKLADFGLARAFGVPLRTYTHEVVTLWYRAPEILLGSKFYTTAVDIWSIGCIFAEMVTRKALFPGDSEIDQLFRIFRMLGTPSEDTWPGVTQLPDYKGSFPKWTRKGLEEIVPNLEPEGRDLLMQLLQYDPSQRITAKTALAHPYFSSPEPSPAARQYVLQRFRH
Histamine H1 receptor (Homo sapiens), sequence (P35367 whole entry): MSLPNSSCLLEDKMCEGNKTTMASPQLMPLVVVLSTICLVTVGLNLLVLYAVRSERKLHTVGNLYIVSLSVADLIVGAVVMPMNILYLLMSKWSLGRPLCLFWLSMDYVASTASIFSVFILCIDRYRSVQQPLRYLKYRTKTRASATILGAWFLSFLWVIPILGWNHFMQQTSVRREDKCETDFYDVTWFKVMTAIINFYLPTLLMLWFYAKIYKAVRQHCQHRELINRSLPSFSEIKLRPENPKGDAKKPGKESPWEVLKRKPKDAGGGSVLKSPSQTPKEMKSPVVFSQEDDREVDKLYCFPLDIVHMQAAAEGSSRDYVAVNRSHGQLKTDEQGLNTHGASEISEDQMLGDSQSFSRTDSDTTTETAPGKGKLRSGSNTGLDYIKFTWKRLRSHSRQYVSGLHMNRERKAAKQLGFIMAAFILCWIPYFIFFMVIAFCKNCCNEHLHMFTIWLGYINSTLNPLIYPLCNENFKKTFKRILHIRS
Testis-specific serine/threonine-protein kinase 1, sequence (Q9BXA7 whole entry): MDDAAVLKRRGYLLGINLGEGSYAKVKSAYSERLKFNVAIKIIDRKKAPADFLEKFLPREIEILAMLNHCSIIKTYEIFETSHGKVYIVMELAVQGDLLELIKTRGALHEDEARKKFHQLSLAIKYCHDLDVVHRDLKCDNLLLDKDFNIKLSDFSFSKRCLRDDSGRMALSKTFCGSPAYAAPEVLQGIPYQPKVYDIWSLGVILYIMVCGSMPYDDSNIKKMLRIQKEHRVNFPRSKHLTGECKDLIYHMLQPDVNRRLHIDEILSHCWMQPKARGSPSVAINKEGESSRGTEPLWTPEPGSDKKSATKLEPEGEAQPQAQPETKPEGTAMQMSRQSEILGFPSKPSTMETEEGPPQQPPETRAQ
Uncharacterized serine/threonine-protein kinase SBK3, sequence (P0C264 whole entry): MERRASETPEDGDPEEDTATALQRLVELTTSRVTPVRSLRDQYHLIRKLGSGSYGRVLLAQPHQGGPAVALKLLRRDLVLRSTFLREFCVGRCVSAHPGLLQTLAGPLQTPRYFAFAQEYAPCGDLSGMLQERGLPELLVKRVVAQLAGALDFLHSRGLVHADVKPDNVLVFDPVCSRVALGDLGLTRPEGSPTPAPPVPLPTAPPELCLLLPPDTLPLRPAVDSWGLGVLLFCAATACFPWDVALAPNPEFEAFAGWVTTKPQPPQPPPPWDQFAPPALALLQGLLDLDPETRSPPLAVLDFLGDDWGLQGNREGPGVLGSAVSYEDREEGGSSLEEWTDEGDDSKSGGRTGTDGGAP
Ephrin type-A receptor 5, sequence (P54756 whole entry): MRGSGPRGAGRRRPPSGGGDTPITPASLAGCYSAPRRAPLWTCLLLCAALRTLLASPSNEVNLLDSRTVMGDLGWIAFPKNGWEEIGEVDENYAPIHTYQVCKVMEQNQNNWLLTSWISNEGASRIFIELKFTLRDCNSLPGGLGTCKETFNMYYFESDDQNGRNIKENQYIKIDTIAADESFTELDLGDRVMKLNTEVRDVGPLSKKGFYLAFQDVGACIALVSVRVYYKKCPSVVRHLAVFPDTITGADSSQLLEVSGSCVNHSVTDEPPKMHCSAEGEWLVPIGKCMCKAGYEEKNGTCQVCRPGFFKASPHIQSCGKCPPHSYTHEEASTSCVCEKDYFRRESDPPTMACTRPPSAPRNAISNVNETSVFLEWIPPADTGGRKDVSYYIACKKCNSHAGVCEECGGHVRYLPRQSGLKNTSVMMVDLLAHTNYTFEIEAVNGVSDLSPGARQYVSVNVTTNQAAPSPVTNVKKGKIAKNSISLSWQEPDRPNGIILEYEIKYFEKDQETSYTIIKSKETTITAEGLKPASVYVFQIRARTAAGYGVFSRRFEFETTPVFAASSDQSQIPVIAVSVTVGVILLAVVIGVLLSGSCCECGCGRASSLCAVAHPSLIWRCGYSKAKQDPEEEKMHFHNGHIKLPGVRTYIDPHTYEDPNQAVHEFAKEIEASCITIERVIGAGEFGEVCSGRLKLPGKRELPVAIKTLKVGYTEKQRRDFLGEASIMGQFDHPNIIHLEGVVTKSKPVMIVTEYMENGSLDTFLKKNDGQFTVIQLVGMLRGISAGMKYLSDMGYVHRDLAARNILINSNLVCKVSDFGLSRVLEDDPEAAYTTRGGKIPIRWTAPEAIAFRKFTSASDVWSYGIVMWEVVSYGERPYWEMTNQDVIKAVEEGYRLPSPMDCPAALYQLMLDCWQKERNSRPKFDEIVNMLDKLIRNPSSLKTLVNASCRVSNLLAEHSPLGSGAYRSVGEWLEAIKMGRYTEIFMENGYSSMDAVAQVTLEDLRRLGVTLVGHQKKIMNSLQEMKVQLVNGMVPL
Tyrosine-protein kinase Mer, sequence (Q12866 whole entry): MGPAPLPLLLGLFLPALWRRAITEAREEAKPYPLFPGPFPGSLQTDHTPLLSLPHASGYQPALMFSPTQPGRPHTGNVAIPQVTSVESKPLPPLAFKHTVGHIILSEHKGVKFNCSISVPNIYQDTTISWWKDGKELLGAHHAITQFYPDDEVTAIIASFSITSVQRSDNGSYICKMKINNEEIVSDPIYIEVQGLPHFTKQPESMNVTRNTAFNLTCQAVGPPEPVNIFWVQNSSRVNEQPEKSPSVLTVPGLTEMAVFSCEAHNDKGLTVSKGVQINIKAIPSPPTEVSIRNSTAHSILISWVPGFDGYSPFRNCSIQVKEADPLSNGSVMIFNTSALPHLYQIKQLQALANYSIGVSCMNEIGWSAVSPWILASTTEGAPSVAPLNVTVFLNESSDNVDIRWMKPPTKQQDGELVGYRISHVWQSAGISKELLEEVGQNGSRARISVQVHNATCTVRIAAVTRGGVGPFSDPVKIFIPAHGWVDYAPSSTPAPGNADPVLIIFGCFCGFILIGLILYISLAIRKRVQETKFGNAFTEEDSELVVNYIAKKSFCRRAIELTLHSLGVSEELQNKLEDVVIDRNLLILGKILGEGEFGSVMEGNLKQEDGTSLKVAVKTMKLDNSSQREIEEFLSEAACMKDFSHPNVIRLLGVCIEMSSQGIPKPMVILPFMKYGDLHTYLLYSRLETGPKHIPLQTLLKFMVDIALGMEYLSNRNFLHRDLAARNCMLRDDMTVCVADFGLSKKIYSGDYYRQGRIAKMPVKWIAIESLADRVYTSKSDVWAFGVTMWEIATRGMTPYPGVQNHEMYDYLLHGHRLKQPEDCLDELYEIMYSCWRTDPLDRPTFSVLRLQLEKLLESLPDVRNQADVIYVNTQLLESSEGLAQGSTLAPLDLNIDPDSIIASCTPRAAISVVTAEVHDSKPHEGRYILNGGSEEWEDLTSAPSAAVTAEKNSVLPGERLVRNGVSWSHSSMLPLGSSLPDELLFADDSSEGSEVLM
Kappa-type opioid receptor (Homo sapiens), sequence (P41145 whole entry): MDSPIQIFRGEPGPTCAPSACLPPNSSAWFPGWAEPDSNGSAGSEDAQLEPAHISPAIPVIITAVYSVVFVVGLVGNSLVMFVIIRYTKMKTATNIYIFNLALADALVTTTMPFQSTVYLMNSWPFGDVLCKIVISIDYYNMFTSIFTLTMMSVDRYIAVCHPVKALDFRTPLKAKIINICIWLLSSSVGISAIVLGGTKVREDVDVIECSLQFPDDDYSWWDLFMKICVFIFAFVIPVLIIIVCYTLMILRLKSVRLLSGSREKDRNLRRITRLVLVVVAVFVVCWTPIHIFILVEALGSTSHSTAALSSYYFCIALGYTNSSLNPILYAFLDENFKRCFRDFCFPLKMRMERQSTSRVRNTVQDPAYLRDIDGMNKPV
D(1B) dopamine receptor (Homo sapiens), sequence (P21918 whole entry): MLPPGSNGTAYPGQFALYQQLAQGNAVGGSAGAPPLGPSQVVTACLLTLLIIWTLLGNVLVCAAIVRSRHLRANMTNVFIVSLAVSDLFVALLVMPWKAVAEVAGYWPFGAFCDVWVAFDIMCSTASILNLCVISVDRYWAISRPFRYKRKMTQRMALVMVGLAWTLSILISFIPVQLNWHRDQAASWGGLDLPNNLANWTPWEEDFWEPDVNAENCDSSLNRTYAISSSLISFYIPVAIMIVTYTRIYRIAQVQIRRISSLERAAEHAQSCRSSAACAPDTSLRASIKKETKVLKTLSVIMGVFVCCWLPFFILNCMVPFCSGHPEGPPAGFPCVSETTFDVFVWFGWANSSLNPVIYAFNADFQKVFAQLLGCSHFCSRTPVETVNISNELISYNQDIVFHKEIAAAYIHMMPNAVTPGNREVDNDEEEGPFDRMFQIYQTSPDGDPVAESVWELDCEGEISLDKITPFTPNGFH

CN1C(=O)[C@@H](N2CCc3c(nn(Cc4ccccc4)c3Br)C2=O)COc2ccccc21 [TP-030-2]
1000 nM: IC50 [4] | IC50 [5] | IC50 [6] | IC50 [7] | IC50 [8] | IC50 [9] | IC50 [10] | IC50 [11] | IC50 [12] | IC50 [13] | IC50 [14] | IC50 [15] | IC50 [16] | IC50 [17] | IC50 [18] | IC50 [19] | IC50 [20] | IC50 [21] | IC50 [22] | IC50 [23] | IC50 [24] | IC50 [25] | IC50 [26] | IC50 [27] | IC50 [28] | IC50 [29] | IC50 [30] | IC50 [31] | IC50 [32] | IC50 [33] | IC50 [34] | IC50 [35] | IC50 [36]
2070 nM: Ki ([1]; read-out: Ki)
7% (not active): inhibition at 60 min, 10 µM [2]
2040 nM: Ki ([1]; read-out: pKi (converted))
inactive: inhibition [3] 2% | inhibition [37] 38.2% | inhibition [38] -8.33% | inhibition [39] 9.99% | inhibition [40] 3% | inhibition [41] 8% | inhibition [42] 3% | inhibition [43] 5% | inhibition [44] 10% | inhibition [45] 1% | inhibition [46] -4%
